{"source": "patent US20070049635A1", "about": "(priority 2003, published 2007)", "key": {"Pyricularia oryzae [1]": {"system": "Pyricularia oryzae", "assay_type": "in vivo", "settings": "wettable powder diluted to 200 ppm sprayed on rice pots (Koshihikari, 2-leaf stage); spore spray-inoculation; examined after 7 days"}, "Pyricularia oryzae [2]": {"system": "Pyricularia oryzae", "assay_type": "in vivo", "settings": "granules applied to water surface at 1.5 kg/10 ares; rice Koshihikari; inoculated 30 days after application; lesions examined after 1 week"}}, "note": "Like-named read-outs stand apart in the source and are kept apart here.", "data": [{"compound": "CSCC(C)OC(=O)NC(CNC(=O)c1ccc(C)cc1)C(C)C", "note": "(stereo not shown) [Formula (8), reference compound]", "values": [{"measurement": "Effect (preventive value)", "setting": "Pyricularia oryzae [1]", "result": "C (less than 50%)"}, {"measurement": "Effect (preventive value)", "setting": "Pyricularia oryzae [2]", "result": "C (less than 50%)"}]}, {"compound": "CC(C)C(CNC(=O)c1cc2ccccc2o1)NC(=O)OCC(F)(F)F", "note": "(stereo not shown) [compound 28]", "values": [{"measurement": "Effect (preventive value)", "setting": "Pyricularia oryzae [1]", "result": "A (80% or more)"}, {"measurement": "Effect (preventive value)", "setting": "Pyricularia oryzae [2]", "result": "A (80% or more)"}]}, {"compound": "Cc1ccc(C(=O)NCC(NC(=O)OC(C)C(F)(F)F)C(C)C)cc1", "note": "(stereo not shown) [compound 30]", "values": [{"measurement": "Effect (preventive value)", "setting": "Pyricularia oryzae [1]", "result": "A (80% or more)"}, {"measurement": "Effect (preventive value)", "setting": "Pyricularia oryzae [2]", "result": "A (80% or more)"}]}, {"compound": "CC(C)(C)C(CNC(=O)c1cc2ccccc2o1)NC(=O)OCC(F)(F)F", "note": "(stereo not shown) [compound 31]", "values": [{"measurement": "Effect (preventive value)", "setting": "Pyricularia oryzae [1]", "result": "A (80% or more)"}, {"measurement": "Effect (preventive value)", "setting": "Pyricularia oryzae [2]", "result": "A (80% or more)"}]}, {"compound": "Cc1ccc(C(=O)NC(CNC(=O)OC2CCCCC2Cl)C(C)C)cc1", "note": "(stereo not shown) [Compound No. 17, N-(2-chlorocyclohexyloxycarbonyl)-N′-(4-methylbenzoyl)-3-methyl-1,2-butanediamine]", "values": [{"measurement": "Effect (preventive value)", "setting": "Pyricularia oryzae [1]", "result": "A (80% or more)"}]}, {"compound": "Cc1ccc(C(=O)NCC(NC(=O)OCC(F)(F)F)C2CCCC2)cc1", "note": "(stereo not shown) [compound 36]", "values": [{"measurement": "Effect (preventive value)", "setting": "Pyricularia oryzae [1]", "result": "A (80% or more)"}]}, {"compound": "CCC(CC)C(CNC(=O)c1ccc(C)cc1)NC(=O)OCC(F)(F)F", "note": "(stereo not shown) [compound 39]", "values": [{"measurement": "Effect (preventive value)", "setting": "Pyricularia oryzae [1]", "result": "A (80% or more)"}]}, {"compound": "Cc1ccc(C(=O)NC(CNC(=O)OC(C(F)(F)F)C(F)(F)F)C(C)C)cc1", "note": "(stereo not shown) [Compound No. 8, N-(1,1,1,3,3,3-hexafluoro-2-propyloxycarbonyl)-N′-(4-methylbenzoyl)-3-methyl-1,2-butanediamine]", "values": [{"measurement": "Effect (preventive value)", "setting": "Pyricularia oryzae [1]", "result": "A (80% or more)"}]}, {"compound": "N-(chloromethyloxycarbonyl)-N′-(4-methylbenzoyl)-3-methyl-1,2-butanediamine [Compound No. 1]", "values": [{"measurement": "Effect (preventive value)", "setting": "Pyricularia oryzae [2]", "result": "A (80% or more)"}]}, {"compound": "Cc1ccc(C(=O)NCC(NC(=O)OCC(F)(F)C(F)(F)C(F)(F)F)C(C)C)cc1", "note": "(stereo not shown) [compound 13]", "values": [{"measurement": "Effect (preventive value)", "setting": "Pyricularia oryzae [1]", "result": "A (80% or more)"}]}, {"compound": "CC(C)C(CNC(=O)c1nc2ccc(F)cc2s1)NC(=O)OCC(F)(F)F", "note": "(stereo not shown) [compound 37]", "values": [{"measurement": "Effect (preventive value)", "setting": "Pyricularia oryzae [1]", "result": "A (80% or more)"}]}, {"compound": "Cc1ccc(C(=O)NCC(NC(=O)Oc2ccc3ccccc3c2)C(C)C)cc1", "note": "(stereo not shown) [Formula (7), reference compound]", "values": [{"measurement": "Effect (preventive value)", "setting": "Pyricularia oryzae [1]", "result": "C (less than 50%)"}, {"measurement": "Effect (preventive value)", "setting": "Pyricularia oryzae [2]", "result": "C (less than 50%)"}]}, {"compound": "Cc1ccc(C(=O)NCC(NC(=O)OC2CCCCC2F)C(C)C)cc1", "note": "(stereo not shown) [compound 16]", "values": [{"measurement": "Effect (preventive value)", "setting": "Pyricularia oryzae [1]", "result": "A (80% or more)"}]}, {"compound": "Cc1ccc(C(=O)NCC(NC(=O)OCCI)C(C)C)cc1", "note": "(stereo not shown) [compound 5]", "values": [{"measurement": "Effect (preventive value)", "setting": "Pyricularia oryzae [1]", "result": "A (80% or more)"}]}, {"compound": "C=C(Cl)COC(=O)NC(CNC(=O)c1ccc(C)cc1)C(C)C", "note": "(stereo not shown) [compound 15]", "values": [{"measurement": "Effect (preventive value)", "setting": "Pyricularia oryzae [1]", "result": "A (80% or more)"}, {"measurement": "Effect (preventive value)", "setting": "Pyricularia oryzae [2]", "result": "A (80% or more)"}]}, {"compound": "Cc1ccc(C(=O)NCC(NC(=O)OC(CF)CF)C(C)C)cc1", "note": "(stereo not shown) [compound 9]", "values": [{"measurement": "Effect (preventive value)", "setting": "Pyricularia oryzae [1]", "result": "A (80% or more)"}]}, {"compound": "CCC(C)C(CNC(=O)c1nc2ccccc2s1)NC(=O)OCC(F)(F)F", "note": "(stereo not shown) [compound 33]", "values": [{"measurement": "Effect (preventive value)", "setting": "Pyricularia oryzae [1]", "result": "A (80% or more)"}]}, {"compound": "CCC(C)C(CNC(=O)c1cc2ccccc2o1)NC(=O)OCC(F)(F)F", "note": "(stereo not shown) [compound 32]", "values": [{"measurement": "Effect (preventive value)", "setting": "Pyricularia oryzae [1]", "result": "A (80% or more)"}]}, {"compound": "CC(C)C(CNC(=O)c1nc2ccccc2s1)NC(=O)OCC(F)(F)F", "note": "(stereo not shown) [compound 38]", "values": [{"measurement": "Effect (preventive value)", "setting": "Pyricularia oryzae [1]", "result": "A (80% or more)"}]}, {"compound": "Cc1ccc(C(=O)NCC(NC(=O)OCCC(F)(F)C(F)(F)C(F)(F)C(F)(F)F)C(C)C)cc1", "note": "(stereo not shown) [compound 14]", "values": [{"measurement": "Effect (preventive value)", "setting": "Pyricularia oryzae [1]", "result": "B (50% or more and less than 80%)"}]}, {"compound": "Cc1ccc(C(=O)NCC(NC(=O)OCCF)C(C)C)cc1", "note": "(stereo not shown) [compound 2]", "values": [{"measurement": "Effect (preventive value)", "setting": "Pyricularia oryzae [1]", "result": "A (80% or more)"}, {"measurement": "Effect (preventive value)", "setting": "Pyricularia oryzae [2]", "result": "A (80% or more)"}]}, {"compound": "Cc1ccc(C(=O)NCC(NC(=O)OCCCl)C(C)C)cc1", "note": "(stereo not shown) [compound 3]", "values": [{"measurement": "Effect (preventive value)", "setting": "Pyricularia oryzae [1]", "result": "A (80% or more)"}]}, {"compound": "Cc1ccc(C(=O)NCC(NC(=O)OCC(F)(F)F)C(C)(C)C)cc1", "note": "(stereo not shown) [compound 24]", "values": [{"measurement": "Effect (preventive value)", "setting": "Pyricularia oryzae [1]", "result": "A (80% or more)"}, {"measurement": "Effect (preventive value)", "setting": "Pyricularia oryzae [2]", "result": "A (80% or more)"}]}, {"compound": "N-(2,2,2-trichloroethyloxycarbonyl)-N′-(4-methylbenzoyl)-3-methyl-1,2-butanediamine [Compound No. 7]", "values": [{"measurement": "Effect (preventive value)", "setting": "Pyricularia oryzae [1]", "result": "A (80% or more)"}]}, {"compound": "Cc1ccc(C(=O)NCC(NC(=O)OCCCCl)C(C)C)cc1", "note": "(stereo not shown) [compound 10]", "values": [{"measurement": "Effect (preventive value)", "setting": "Pyricularia oryzae [1]", "result": "A (80% or more)"}]}, {"compound": "Cc1ccc(C(=O)NCC(NC(=O)OC(CBr)CBr)C(C)C)cc1", "note": "(stereo not shown) [compound 11]", "values": [{"measurement": "Effect (preventive value)", "setting": "Pyricularia oryzae [1]", "result": "B (50% or more and less than 80%)"}]}, {"compound": "N-(2,2,2-trifluoroethyloxycarbonyl)-N′-(4-methylbenzoyl)-3-methyl-1,2-butanediamine [Compound No. 6]", "values": [{"measurement": "Effect (preventive value)", "setting": "Pyricularia oryzae [1]", "result": "A (80% or more)"}, {"measurement": "Effect (preventive value)", "setting": "Pyricularia oryzae [2]", "result": "A (80% or more)"}]}, {"compound": "Cc1ccc(C(=O)NCC(NC(=O)OCCBr)C(C)C)cc1", "note": "(stereo not shown) [compound 4]", "values": [{"measurement": "Effect (preventive value)", "setting": "Pyricularia oryzae [1]", "result": "A (80% or more)"}]}, {"compound": "CCC(C)C(CNC(=O)c1ccc(C)cc1)NC(=O)OCC(F)(F)F", "note": "(stereo not shown) [compound 25]", "values": [{"measurement": "Effect (preventive value)", "setting": "Pyricularia oryzae [1]", "result": "A (80% or more)"}, {"measurement": "Effect (preventive value)", "setting": "Pyricularia oryzae [2]", "result": "A (80% or more)"}]}, {"compound": "CC(C)C(CNC(=O)c1cc2ccccc2s1)NC(=O)OCC(F)(F)F", "note": "(stereo not shown) [compound 34]", "values": [{"measurement": "Effect (preventive value)", "setting": "Pyricularia oryzae [1]", "result": "A (80% or more)"}]}]}
